Source: US4284769A, “Preparation of triazinyl nitriles” (priority 1975, dated 1981)

How the values were obtained:
[1] = Polymerization constant Kp of radical initiators in styrene (dilatometer); conditions: initiator 0.05% by weight for poorly soluble ones, normally 0.2%
Method: (§1) In these examples the reactivities are determined of the radical initiators and polymerization initiators according to the invention and some known radical initiators. The reactivity is indicated with the polymerization constant Kp. The latter is very much dependent on the temperature and occurs in the formula Rp=Kp (M) (I)^1/2 where Rp is the polymerization speed, (M) the concentration of the monomer and (I) the concentration of the radical initiator (see "Die Makromolekulare Chemie" 157 (1972), p.279 ff). In all determinations 50 ml. of the monomer were mixed with the radial initiators listed in the following Table and transferred to a dilatometer. The dilatometer was cooled to -80° C., filled with nitrogen, followed by applying vacuum to it; the last two treatments were repeated three times. Then the dilatometer was placed in a thermostated bath which had been set to the polymerization temperature mentioned in the table below. The concentration values were determined in accordance with the standard dilatometric technique (see "Angewandte Chemie" 59 (1947), p90). From the values obtained the conversion and the Kp-values were successively determined. The Table below gives the values obtained for the compounds are prepared in the Examples I through VII. For comparison also the Kp-values of some known radical initiators, namely, α,α'-bis(methoxycarbo)α,α'-bis(p-methylphenyl)succinonitrile(dl) (IX), dilauroyl peroxide (X), di-t-butyl perpivalate (XI) and tert. butyl peroxypivalate (XII) are listed in the Table.
(§2) Because of the poor solubility of some of the radical initiators prepared in the preceding examples, the determination of the Kp-value was started from 0.05% by weight, whereas normally 0.2% by weight is included in the monomer to be polymerized. The Kp-values of other radical initiators in styrene are listed in the Tables 2 and 3 on page 283 of the aforementioned article in "Die Makromolekulare Chemie".

[2] = Polymerization constant Kp of radical initiators in methylmethacrylate (dilatometer); conditions: initiator 0.05% by weight for poorly soluble ones, normally 0.2%
Method: as §1, §2

COC(=O)[C@](C#N)(c1ccc(C)cc1)[C@](C#N)(C(=O)OC)c1ccc(C)cc1 (relative stereo) [IX, α,α'-bis(methoxycarbo)α,α'-bis(p-methylphenyl)succinonitrile(dl), reference compound]
Kp-value × 10^4 ([1]; temperature 70 °C): 1.3
Kp-value × 10^4 ([1]; temperature 80 °C): 3.4

CSc1nc(SC)nc(C(C#N)(c2ccc(C)cc2)C(C#N)(c2ccc(C)cc2)c2nc(SC)nc(SC)n2)n1 (stereo not drawn) [Example III, α,α'-bis(p-methylphenyl)α,α'-bis(2,4-dimethylthio-1,3,5-triazine)succinonitrile]
Kp-value × 10^4 ([2]; temperature 50 °C): 2.85
Kp-value × 10^4 ([2]; temperature 60 °C): 5.92

COc1ccc(C(C#N)(c2nc(OC)nc(OC)n2)C(C#N)(c2ccc(OC)cc2)c2nc(OC)nc(OC)n2)cc1 (stereo not drawn) [Example IV, α,α'-bis(p-methoxyphenyl)α,α'-bis(2,4-dimethoxy-1,3,5-triazine)succinonitrile]
Kp-value × 10^4 ([2]; temperature 50 °C): 1.1
Kp-value × 10^4 ([2]; temperature 60 °C): 2.7

CCCCCCCCCCCCCCCCCCOc1nc(OCCCCCCCCCCCCCCCCCC)nc(C(C#N)(c2ccc(C)cc2)C(C#N)(c2ccc(C)cc2)c2nc(OCCCCCCCCCCCCCCCCCC)nc(OCCCCCCCCCCCCCCCCCC)n2)n1 (stereo not drawn) [Example V, α,α'-bis(p-tolyl)α,α'-bis(2,4-distearoxy-1,3,5-triazine)succinonitrile]
Kp-value × 10^4 ([2]; temperature 50 °C): 2.32
Kp-value × 10^4 ([2]; temperature 60 °C): 4.48
Kp-value × 10^4 ([1]; temperature 70 °C): 3.05
Kp-value × 10^4 ([1]; temperature 80 °C): 7.86

COc1nc(OC)nc(C(C#N)(c2ccc(C)cc2)C(C#N)(c2ccc(C)cc2)c2nc(OC)nc(OC)n2)n1 (stereo not shown) [I + II]
Kp-value × 10^4 ([2]; temperature 50 °C): 3.85
Kp-value × 10^4 ([2]; temperature 60 °C): 7.5

Cc1ccc(C(C#N)(c2nc(N3CCCCC3)nc(N3CCCCC3)n2)C(C#N)(c2ccc(C)cc2)c2nc(N3CCCCC3)nc(N3CCCCC3)n2)cc1 (stereo not drawn) [VI, α,α'-bis(p-methylphenyl) α,α'-bis (2,4-dipiperidino-1,3,5-triazine)succinonitrile]
Kp-value × 10^4 ([2]; temperature 50 °C): no polymerization
Kp-value × 10^4 ([2]; temperature 60 °C): no polymerization
Kp-value × 10^4 ([1]; temperature 80 °C): 1.60
Kp-value × 10^4 ([1]; temperature 90 °C): 3.56

COc1nc(OC)nc(C(C#N)(c2ccc(Cl)cc2)C(C#N)(c2ccc(Cl)cc2)c2nc(OC)nc(OC)n2)n1 (stereo not drawn) [VII, α,α'-bis(p-chorophenyl)α,α'-bis(2,4-dimethoxy-1,3,5-triazine)succinonitrile]
Kp-value × 10^4 ([2]; temperature 50 °C): 2.10
Kp-value × 10^4 ([2]; temperature 60 °C): 5.52
Kp-value × 10^4 ([1]; temperature 70 °C): 6.10
Kp-value × 10^4 ([1]; temperature 80 °C): 5.70

CCCCCCCCCCCC(=O)OOC(=O)CCCCCCCCCCC [X, dilauroyl peroxide, reference compound]
Kp-value × 10^4 ([1]; temperature 70 °C): 2.4
Kp-value × 10^4 ([1]; temperature 80 °C): 5.8

CC(C)(C)OOC(=O)C(C)(C)C [XI, di-t-butyl perpivalate, reference compound]
Kp-value × 10^4 ([1]; temperature 70 °C): 4.2
Kp-value × 10^4 ([1]; temperature 80 °C): 10.1

CC(C)(C)OOC(=O)C(C)(C)C [XII, tert. butyl peroxypivalate, reference compound]
Kp-value × 10^4 ([2]; temperature 50 °C): 3.0
